Read-outs that look alike come from different tables or passages of the source.
Assays:
CYP109E1 [1] = target: T1, CYP109E1 (Priestia megaterium, UniProt D5DKI8); test: co-crystal structure; type: binding
T1 sequence (D5DKI8 1-404): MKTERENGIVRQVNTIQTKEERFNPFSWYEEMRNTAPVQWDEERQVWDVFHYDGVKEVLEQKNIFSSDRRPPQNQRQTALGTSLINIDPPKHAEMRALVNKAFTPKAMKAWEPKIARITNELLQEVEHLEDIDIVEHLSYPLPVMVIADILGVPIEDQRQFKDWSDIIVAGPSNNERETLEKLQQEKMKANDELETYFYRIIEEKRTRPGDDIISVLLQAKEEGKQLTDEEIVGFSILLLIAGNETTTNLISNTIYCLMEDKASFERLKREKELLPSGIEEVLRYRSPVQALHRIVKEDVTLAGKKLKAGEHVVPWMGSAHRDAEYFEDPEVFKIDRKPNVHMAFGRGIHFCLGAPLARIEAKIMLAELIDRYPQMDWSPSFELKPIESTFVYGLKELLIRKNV

CYP109E1 [2] = target: CYP109E1 (Priestia megaterium, UniProt D5DKI8, K187A); test: in vitro turnover of purified mutant with Adx4-108/AdR, HPLC; type: biochemical
CYP109E1 [3] = target: T1, CYP109E1; test: co-crystal structure; type: binding; remark: listed apart in the source
CYP109E1 [4] = target: CYP109E1 (Priestia megaterium, UniProt D5DKI8, E245A); test: in vitro turnover of purified mutant with Adx4-108/AdR, HPLC; type: biochemical

| SMILES | Kd (CYP109E1 [1]) | Catalytic activity for the formation of 16β-OH-TES, nmol.(nmol P450)^-1.min^-1 (CYP109E1 [2]) | Kd (CYP109E1 [3]) | Catalytic activity for the formation of 16β-OH-TES, nmol.(nmol P450)^-1.min^-1 (CYP109E1 [4]) |
| --- | --- | --- | --- | --- |
| C[C@]12C[C@H](O)[C@H]3[C@@H](CCC4=CC(=O)CC[C@@]43C)[C@@H]1CC[C@@H]2C(=O)CO [compound 4, corticosterone] | 91 ± 8 µM |  |  |  |
| C[C@]12CC[C@H]3[C@@H](CCC4=CC(=O)CC[C@@]43C)[C@@H]1CC[C@@H]2O [compound 11, testosterone] |  | 1.43 ± 0.06 nmol·(nmol P450)^−1·min^−1 | 105 ± 10 µM | 4.69 ± 0.04 nmol·(nmol P450)^−1·min^−1 |
